Test [1] can be described thus: Renal medullary blood perfusion (laser Doppler) in hemorrhaged rats. It is filed as in vivo, rat. As to the method: Determination of cardiovascular response. The animals were anesthetized with urethane dissolved in isotonic saline. Urethane was administered in a dose of 1.5 g per kg body weight via intraperitoneal injection. Urethane was selected as an anesthetic agent, because it produces long lasting (8-10 hours) anesthesia with minimal cardiovascular and respiratory system depression. It produces a level of surgical anesthesia characterized by preservation of cardiovascular reflexes (Maggi and Meli 1986). Briefly, anaesthetized rats were immobilized on a surgical board equipped with controlled heating pad. […] MAP and HR were measured by cannulating the left femoral artery with pressure catheter SPR-320 (Millar Instruments), connected to the ML221 bridge amplifier (AD Instruments) through AEC-10C connector and the signals were acquired (1000 S^−1) using PowerLab 16/30 data acquisition system (Gulati et al. 2012; Pacher et al. 2008). […]
Induction of Hemorrhagic Shock. […] Measured hematocrit levels were similar in various groups. […]
Experimental design. […] Additional experiments were also carried out where the amount of norepinephrine (a very commonly used vasopressor during resuscitation) required to maintain MAP at 70 mmHg in normal saline (NS) or centhaquin (0.01 mg/kg) treated rats (volume equal to blood loss) was determined. […]

The next test relates to IL-10. The test can be described thus: Plasma IL-10 in hemorrhaged rats (ELISA). To be noted: rat, in vivo. As to the method: Induction of Hemorrhagic Shock. Hemorrhage was induced by withdrawing blood from the femoral artery at a rate of approximately 0.5 to 1 mL/min until a MAP of 35 mmHg was reached. This MAP was maintained for 30 min by further withdrawal of blood, if necessary. The hemorrhagic shock model used in the present study is a well-established rodent model of manageable pressure hemorrhage (Buehler et al. 2000; Gulati et al. 1997a; Gulati and Sen 1998). The volume of blood loss was about approximately 8.0 ml in each rat and was similar in various groups, amounting to approximately 40% of the total blood. Measured hematocrit levels were similar in various groups. The duration of blood withdrawal was approximately 15 minutes.
Experimental design. […] The blood samples, for biochemical estimations, were collected at 30 minutes of resuscitation and cardiovascular parameters were monitored till 60 minutes after which the animal was sacrificed. […]

Test [2] can be described thus: Renal blood perfusion in hemorrhaged rats with norepinephrine infusion to maintain MAP at 70 mmHg. It is filed as in vivo, rat. As to the method:
Experimental design. To determine the resuscitative effect of centhaquin on cardiovascular system in hemorrhagic shock, rats were randomly divided into three groups: Hemorrhaged rats were administered 100% shed blood volume of either normal saline (vehicle); 100% shed blood volume of either normal saline plus centhaquin (0.01 mg/kg) or 100% shed blood volume of either normal saline plus centhaquin (0.10 mg/kg) during the first 10 minutes of resuscitation. Additional experiments were also carried out where the amount of norepinephrine (a very commonly used vasopressor during resuscitation) required to maintain MAP at 70 mmHg in normal saline (NS) or centhaquin (0.01 mg/kg) treated rats (volume equal to blood loss) was determined.
The femoral vein was cannulated for drug administration, femoral artery was cannulated for measuring mean arterial pressure (MAP) and a laser Doppler flow probe was placed in the renal medulla to measure blood perfusion. Induction of hemorrhagic shock was initiated by withdrawing blood to maintain the MAP at 35 mmHg for 30 minutes. Norepinephrine infusion was carried out to bring and maintain the MAP to 70 mmHg. The effect of centhaquin on cardiovascular functions were measured before the induction of shock, 30 minutes after shock (hemorrhage) and 15, 30, 45, 60, 75 and 90 minutes after resuscitation. […]

The nature of test [3]: Renal blood flow of hemorrhaged rats subjected to 20 minutes of renal artery occlusion. It is filed as in vivo, rat. As to the method: Effect of centhaquin on renal blood perfusion of hemorrhaged rats. Hemorrhaged rats were resuscitated with vehicle (saline) or centhaquin low dose (0.01 mg/kg) or high dose (0.1 mg/kg). The effect of centhaquin on renal blood perfusion was measured before the induction of shock, 30 minutes after shock (hemorrhage) and 10, 30, 60, 90 and 120 minutes after resuscitation. […] This improved renal medullary blood perfusion is indicative of a use of centhaquin to prevent or treat injury to the kidneys (FIG. 5). […] A low dose of 0.02 mg/kg of centhaquin was also found to be effective in increasing the renal blood flow of hemorrhaged rats subjected to 20 minutes of renal artery occlusion.

The conditions of test [4]: rat fixed pressure blood loss, rabbit uncontrolled bleeding with trauma, pig massive blood loss; cited from earlier work.

As for `Cc1cccc(N2CCN(CCc3ccc4ccccc4n3)CC2)c1` [centhaquin, 2-[2-(4-(3-methyphenyl)-1-piperazinyl)]ethyl-quinoline], the “renal blood perfusion compared to equal volume of saline” value in test [1] (hemorrhaged female rats) was “significantly improved”; in test [1] (hemorrhaged male rats, low doses of centhaquin) it was “significantly improved”. Further, the “plasma IL-10, hemorrhagic shock versus resuscitation with hypertonic saline or centhaquin” value in the test on IL-10 is reported as “no statistically significant difference”. The “renal blood perfusion compared to vehicle control following resuscitation” value in test [2] (hemorrhaged female rats, till the end of experiment) is listed as “improved”; in test [2] (hemorrhaged male rats), “improved”. In addition, the “increasing the renal blood flow” value in test [3] (high dose 0.2 mg/kg, versus 0.02 mg/kg) is given as “did not have the same efficacy”; in test [3] (low dose 0.02 mg/kg), “effective”. Moreover, the “mortality following hypovolemic shock” value in test [4] is “highly effective in reducing the mortality”.

(Values after US12629406B2, “Alterations in endothelin receptors following hemorrhage and resuscitation by centhaquin” (MIDWESTERN UNIVERSITY, priority 2018, dated 2026).)
